target: human Nav1.7 (Homo sapiens, UniProt Q15858); experiment: FLIPR sodium dye assay (CoroNa Green AM Na+ dye, primary fluorescence assay) in recombinant Nav1.7/HEK293 cells; format: cell-based; settings: Table 6; CoroNa Green AM Na+ dye primary fluorescence assay; read-out: Nav1.7 Activity (μM) FLIPR assay IC50
Sequence (Q15858 1-1977 isoform Q15858-3): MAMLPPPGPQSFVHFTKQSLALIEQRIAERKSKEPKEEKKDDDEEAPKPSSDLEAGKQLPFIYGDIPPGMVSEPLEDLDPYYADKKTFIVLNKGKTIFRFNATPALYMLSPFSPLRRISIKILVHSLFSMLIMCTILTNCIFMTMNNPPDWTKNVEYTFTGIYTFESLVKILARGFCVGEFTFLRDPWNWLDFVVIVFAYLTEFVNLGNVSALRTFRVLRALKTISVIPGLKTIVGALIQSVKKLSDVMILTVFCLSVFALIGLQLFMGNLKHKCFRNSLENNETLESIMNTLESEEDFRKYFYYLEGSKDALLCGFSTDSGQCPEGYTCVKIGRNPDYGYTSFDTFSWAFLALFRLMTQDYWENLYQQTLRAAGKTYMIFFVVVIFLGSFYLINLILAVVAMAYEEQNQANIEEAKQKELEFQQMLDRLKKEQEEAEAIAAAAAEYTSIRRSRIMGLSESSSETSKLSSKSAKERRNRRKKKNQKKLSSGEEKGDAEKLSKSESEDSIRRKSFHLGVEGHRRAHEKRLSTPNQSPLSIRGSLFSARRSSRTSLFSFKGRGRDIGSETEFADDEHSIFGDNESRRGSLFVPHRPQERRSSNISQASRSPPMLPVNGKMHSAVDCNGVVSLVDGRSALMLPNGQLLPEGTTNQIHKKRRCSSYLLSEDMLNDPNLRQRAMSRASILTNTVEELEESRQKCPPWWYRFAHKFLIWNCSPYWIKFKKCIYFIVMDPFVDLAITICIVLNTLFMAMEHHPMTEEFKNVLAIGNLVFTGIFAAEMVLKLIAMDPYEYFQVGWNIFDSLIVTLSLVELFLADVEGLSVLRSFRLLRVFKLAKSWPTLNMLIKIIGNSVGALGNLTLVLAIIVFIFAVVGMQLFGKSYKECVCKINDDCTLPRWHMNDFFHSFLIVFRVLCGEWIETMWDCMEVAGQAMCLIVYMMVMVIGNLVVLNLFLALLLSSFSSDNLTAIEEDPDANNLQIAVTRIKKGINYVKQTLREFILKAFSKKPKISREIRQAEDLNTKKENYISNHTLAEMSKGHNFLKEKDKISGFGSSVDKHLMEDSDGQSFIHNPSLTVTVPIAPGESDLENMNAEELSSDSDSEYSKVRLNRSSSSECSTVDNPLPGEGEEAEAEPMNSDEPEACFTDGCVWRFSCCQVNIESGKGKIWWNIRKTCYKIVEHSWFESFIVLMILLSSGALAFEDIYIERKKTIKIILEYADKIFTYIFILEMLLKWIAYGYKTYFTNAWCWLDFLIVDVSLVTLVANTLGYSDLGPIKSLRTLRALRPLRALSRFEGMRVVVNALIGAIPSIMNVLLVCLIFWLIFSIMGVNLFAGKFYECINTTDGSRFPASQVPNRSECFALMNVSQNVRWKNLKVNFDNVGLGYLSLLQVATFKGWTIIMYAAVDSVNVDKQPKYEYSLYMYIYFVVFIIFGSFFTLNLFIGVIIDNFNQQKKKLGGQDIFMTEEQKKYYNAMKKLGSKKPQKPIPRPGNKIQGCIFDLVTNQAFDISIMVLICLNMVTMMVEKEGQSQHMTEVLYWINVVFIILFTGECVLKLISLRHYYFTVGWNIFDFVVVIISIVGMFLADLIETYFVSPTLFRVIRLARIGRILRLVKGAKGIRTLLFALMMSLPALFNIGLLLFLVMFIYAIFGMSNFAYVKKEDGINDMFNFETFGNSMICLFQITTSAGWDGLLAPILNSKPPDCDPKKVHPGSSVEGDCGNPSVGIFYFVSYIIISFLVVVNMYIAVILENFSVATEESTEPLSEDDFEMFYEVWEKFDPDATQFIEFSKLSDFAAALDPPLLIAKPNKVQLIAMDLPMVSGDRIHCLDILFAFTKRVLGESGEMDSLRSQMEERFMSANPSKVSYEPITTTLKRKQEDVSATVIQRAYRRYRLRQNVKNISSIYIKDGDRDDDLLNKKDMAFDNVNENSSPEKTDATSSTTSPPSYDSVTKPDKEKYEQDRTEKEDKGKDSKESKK

IC50 [µM]	SMILES
1.74	COc1ccc(CNc2cc(C(N)=O)nc(-c3ccc(Oc4ccc(F)cc4)cc3)n2)c(OC)c1 [Cpd No. 178, 6-((2,4-dimethoxybenzyl)amino)-2-(4-(4-fluorophenoxy)phenyl)-pyrimidine-4-carboxamide]
> 20	NC(=O)c1cc(NCc2ncc[nH]2)nc(-c2ccc(Oc3ccc(F)cc3)cc2)n1 [Cpd No. 179, 6-(((1H-imidazol-2-yl)methyl)amino)-2-(4-(4-fluorophenoxy)phenyl)-pyrimidine-4-carboxamide]
0.14	Cn1ccnc1CNc1cc(C(N)=O)nc(-c2ccc(Oc3ccc(F)cc3)cc2)n1 [Cpd No. 180, 2-(4-(4-fluorophenoxy)phenyl)-6-(((1-methyl-1H-imidazol-2-yl)methyl)-amino)pyrimidine-4-carboxamide]
9.72	C[C@H](Oc1cc(C(N)=O)nc(-c2ccc(Oc3ccc(C(F)(F)F)cc3CN3CCCC3)cc2)n1)C(=O)O [Cpd No. 184, (S)-2-((6-carbamoyl-2-(4-(2-(pyrrolidin-1-ylmethyl)-4-(trifluoromethyl)phenoxy)-phenyl)pyrimidin-4-yl)oxy)propanoic acid]
8.69	NC(=O)c1cc(N[C@H]2CCNC2=O)nc(-c2ccc(CC3CCC(C(F)(F)F)CN3)cc2)n1 (stereo partly drawn) [Cpd No. 185, 6-(((S)-2-oxopyrrolidin-3-yl)amino)-2-(4-((5-(trifluoromethyl)piperidin-2-yl)methyl)phenyl)pyrimidine-4-carboxamide]
5.67	NC(=O)c1cc(N[C@H]2CCNC2=O)nc(-c2ccc(Oc3ccc(F)cc3)cc2CN2CCOCC2)n1 [Cpd No. 187, (S)-2-(4-(4-fluorophenoxy)-2-(morpholinomethyl)phenyl)-6-((2-oxopyrrolidin-3-yl)amino)-pyrimidine-4-carboxamide]
> 20	NC(=O)c1cc(N[C@H]2CCNC2=O)nc(-c2ccc(C(O)c3ccc(C(F)(F)F)cn3)cc2)n1 (some centres unmarked) [Cpd No. 189]
1.34	NC(=O)c1cc(N[C@H]2CCNC2=O)nc(-c2ccc(Oc3ccc(C(F)(F)F)cc3CN3CCOCC3)cc2)n1 [Cpd No. 192, (S)-2-(4-(2-(morpholinomethyl)-4-(trifluoromethyl)phenoxy)-phenyl)-6-((2-oxopyrrolidin-3-yl)amino)pyrimidine-4-carboxamide]
> 20	CN1CCN(Cc2cc(C(F)(F)F)ccc2Oc2ccc(-c3nc(N[C@H]4CCNC4=O)cc(C(N)=O)n3)cc2)CC1 [Cpd No. 193]
2.18	NC(=O)c1cc(N[C@H]2CCNC2=O)nc(-c2ccc(Oc3ccc(C(F)(F)F)cc3CN3CCCCC3)cc2)n1 [Cpd No. 194, (S)-6-((2-oxopyrrolidin-3-yl)amino)-2-(4-(2-(piperidin-1-ylmethyl)-4-(trifluoromethyl)-phenoxy)phenyl)pyrimidine-4-carboxamide]
> 20	C[C@H](Nc1cc(C(N)=O)nc(-c2ccc(Oc3cnc(C4CC4)cn3)cc2)n1)C(N)=O [Cpd No. 195, (S)-6-((1-amino-1-oxopropan-2-yl)amino)-2-(4-((5-cyclopropyl-pyrazin-2-yl)oxy)phenyl)-pyrimidine-4-carboxamide]
> 20	Cc1cnc(Oc2ccc(-c3nc(N[C@@H](C)C(N)=O)cc(C(N)=O)n3)cc2)cn1 [Cpd No. 196, (S)-6-((1-amino-1-oxopropan-2-yl)amino)-2-(4-((5-methyl-pyrazin-2-yl)oxy)phenyl)-pyrimidine-4-carboxamide]
5.07	COc1cnc(Oc2ccc(-c3nc(N[C@H]4CCNC4=O)cc(C(N)=O)n3)cc2)cn1 [Cpd No. 197, (S)-2-(4-((5-methoxypyrazin-2-yl)oxy)phenyl)-6-((2-oxopyrrolidin-3-yl)amino)-pyrimidine-4-carboxamide]
> 20	COc1cnc(Oc2ccc(-c3nc(N[C@@H](C)C(N)=O)cc(C(N)=O)n3)cc2)cn1 [Cpd No. 198, (S)-6-((1-amino-1-oxopropan-2-yl)amino)-2-(4-((5-methoxy-pyrazin-2-yl)oxy)phenyl)-pyrimidine-4-carboxamide]
4.67	Cc1cnc(Oc2ccc(-c3nc(N[C@H]4CCNC4=O)cc(C(N)=O)n3)cc2)cn1 [Cpd No. 199, (S)-2-(4-((5-methylpyrazin-2-yl)oxy)phenyl)-6-((2-oxopyrrolidin-3-yl)amino)pyrimidine-4-carboxamide]
0.28	NC(=O)c1cc(N[C@H]2CCNC2=O)nc(-c2ccc(Oc3ccc(C(F)(F)F)cc3)cc2CN2CCOCC2)n1 [Cpd No. 200, (S)-2-(2-(morpholinomethyl)-4-(4-(trifluoromethyl)phenoxy)-phenyl)-6-((2-oxopyrrolidin-3-yl)amino)pyrimidine-4-carboxamide]
> 20	CN(C)Cc1cc(Oc2ccc(C(F)(F)F)cc2)ccc1-c1nc(N[C@H]2CCNC2=O)cc(C(N)=O)n1 [Cpd No. 201, (S)-2-(2-((dimethylamino)-methyl)-4-(4-(trifluoromethyl)-phenoxy)phenyl)-6-((2-oxopyrrolidin-3-yl)-amino)pyrimidine-4-carboxamide]
0.72	NC(=O)c1cc(N[C@H]2CCNC2=O)nc(-c2ccc(Oc3ccc(C(F)(F)F)cc3)cc2CN2CCCCC2)n1 [Cpd No. 202, (S)-6-((2-oxopyrrolidin-3-yl)amino)-2-(2-(piperidin-1-ylmethyl)-4-(4-(trifluoromethyl)-phenoxy)phenyl)pyrimidine-4-carboxamide]
0.76	CN1CCN(Cc2cc(Oc3ccc(C(F)(F)F)cc3)ccc2-c2nc(N[C@H]3CCNC3=O)cc(C(N)=O)n2)CC1 [Cpd No. 203, (S)-2-(2-((4-methylpiperazin-1-yl)methyl)-4-(4-(trifluoro-methyl)phenoxy)-phenyl)-6-((2-oxopyrrolidin-3-yl)amino)-pyrimidine-4-carboxamide]
> 20	NC(=O)c1cc(N[C@H]2CCNC2=O)nc(-c2ccc(Oc3ccc(C(F)(F)F)c(C4=CCNCC4)c3)cc2)n1 [Cpd No. 205, (S)-6-((2-oxopyrrolidin-3-yl)amino)-2-(4-(3-(1,2,3,6-tetrahydropyridin-4-yl)-4-(trifluoromethyl)phenoxy)phenyl)pyrimidine-4-carboxamide]
5.28	NC(=O)c1cc(N[C@H]2CCNC2=O)nc(-c2ccc(Oc3ccc(C(F)(F)F)cc3C3=CCNCC3)cc2)n1 [Cpd No. 206, (S)-6-((2-oxopyrrolidin-3-yl)amino)-2-(4-(2-(1,2,3,6-tetrahydropyridin-4-yl)-4-(trifluoromethyl)phenoxy)phenyl)pyrimidine-4-carboxamide]
4.7	CN1CC=C(c2cc(C(F)(F)F)ccc2Oc2ccc(-c3nc(N[C@H]4CCNC4=O)cc(C(N)=O)n3)cc2)CC1 [Cpd No. 207, (S)-2-(4-(2-(1-methyl-1,2,3,6-tetrahydropyridin-4-yl)-4-(trifluoromethyl)phenoxy)phenyl)-6-((2-oxopyrrolidin-3-yl)amino)pyrimidine-4-carboxamide]
0.75	CCN(CC)Cc1cc(C(F)(F)F)ccc1Oc1ccc(-c2nc(N[C@H]3CCNC3=O)cc(C(N)=O)n2)cc1 [Cpd No. 208, (S)-2-(4-(2-((diethylamino)-methyl)-4-(trifluoromethyl)-phenoxy)phenyl)-6-((2-oxopyrrolidin-3-yl)amino)pyrimidine-4-carboxamide]
> 20	NC(=O)c1cc(N[C@H]2CCNC2=O)nc(-c2ccc(Oc3ccc(C(F)(F)F)cc3)c(N3CCCCC3)c2)n1 [Cpd No. 209, (S)-6-((2-oxopyrrolidin-3-yl)amino)-2-(3-(piperidin-1-yl)-4-(4-(trifluoromethyl)phenoxy)-phenyl)pyrimidine-4-carboxamide]
1.94	CN1CCN(c2cc(Oc3ccc(-c4nc(N[C@H]5CCNC5=O)cc(C(N)=O)n4)cc3)ccc2C(F)(F)F)CC1 [Cpd No. 210, (S)-2-(4-(3-(4-methylpiperazin-1-yl)-4-(trifluoromethyl)phenoxy)phenyl)-6-((2-oxopyrrolidin-3-yl)amino)pyrimidine-4-carboxamide]
4.16	CN1CCN(c2cc(C(F)(F)F)ccc2Oc2ccc(-c3nc(N[C@H]4CCNC4=O)cc(C(N)=O)n3)cc2)CC1 [Cpd No. 211, (S)-2-(4-(2-(4-methylpiperazin-1-yl)-4-(trifluoromethyl)-phenoxy)phenyl)-6-((2-oxopyrrolidin-3-yl)amino)-pyrimidine-4-carboxamide]
4.73	NC(=O)c1cc(N[C@H]2CCNC2=O)nc(-c2ccc(Nc3ccc(F)cc3)c(N)c2)n1 [Cpd No. 212, (S)-2-(3-amino-4-((4-fluoro-phenyl)amino)phenyl)-6-((2-oxopyrrolidin-3-yl)amino)-pyrimidine-4-carboxamide]
0.69	NC(=O)c1cc(O[C@H]2CCNC2=O)nc(C2CCC(Oc3ccc(C(F)(F)F)cn3)CC2)n1 (some centres unmarked) [Cpd No. 213]

SMILES	IC50 [µM]
NC(=O)c1cc(N[C@H]2CCNC2=O)nc(N2[C@@H]3CC[C@H]2C[C@H](Oc2ccc(F)cc2Cl)C3)n1 [Cpd No. 182, 2-((1R,3R,5S)-3-(2-chloro-4-fluorophenoxy)-8-azabicyclo[3.2.1]octan-8-yl)-6-(((S)-2-oxopyrrolidin-3-yl)amino)pyrimidine-4-carboxamide]	0.35
CC1CN1Cc1cc(Oc2ccc(F)cc2)ccc1-c1nc(N[C@H]2CCNC2=O)cc(C(N)=O)n1 (stereo partly drawn) [Cpd No. 188, 2-(4-(4-fluorophenoxy)-2-((2-methylaziridin-1-yl)methyl)-phenyl)-6-(((S)-2-oxopyrrolidin-3-yl)amino)pyrimidine-4-carboxamide]	4.64
NC(=O)c1cc(N[C@H]2CCNC2=O)nc(N2[C@@H]3CC[C@H]2C[C@@H](Oc2ccc(C(F)(F)F)cc2CN2CCCC2)C3)n1 [Cpd No. 191, 6-(((S)-2-oxopyrrolidin-3-yl)amino)-2-((1R,3S,5S)-3-(2-(pyrrolidin-1-ylmethyl)-4-(trifluoromethyl)phenoxy)-8-azabicyclo[3.2.1]octan-8-yl)pyrimidine-4-carboxamide]	1.97
N#Cc1cc(C(F)(F)F)ccc1O[C@H]1C[C@H]2CC[C@@H](C1)N2c1nc(N[C@H]2CCNC2=O)cc(C(N)=O)n1 [Cpd No. 204, 2-((1R,3S,5S)-3-(2-cyano-4-(trifluoromethyl)phenoxy)-8-azabicyclo-[3.2.1]octan-8-yl)-6-(((S)-2-oxopyrrolidin-3-yl)amino)pyrimidine-4-carboxamide]	> 20

— US10196364B2, “Pyrimidine carboxamides as sodium channel blockers” (Purdue Pharma L.P., priority 2013, dated 2019)
